The target in one data set is T1, LC3A (Homo sapiens, UniProt Q9H492).
T1 construct: made in house
Put plainly: Binding of radiolabeled individual peptide fusions to immobilized LC3A. The following applies: for Binding analysis of clones on immobilized LC3 (FIG. 3E): radiolabeled peptide fusions. The protocol: A randomized 8-mer peptide library (with a diversity of 3.78×10^10 unique sequences) was designed, and SUPR peptide mRNA display selections incorporating N-methyl alanine and proteinase-K screening were performed against recombinant LC3 (FIGS. 3A-E). For this, milligram quantities of His6-LC3A were bacterially expressed and purified, chemically biotinylated, and immobilized on streptavidin agarose resin for binding selection. Prior to each round of selection, mRNA-fusion libraries were translated using an in vitro rabbit reticulocyte lysate system incorporating amber-codon nonsense suppression with N-methyl alanine. Fusions were cyclized between the side chain of lysine and the N-terminus and briefly exposed to proteinase K to eliminate any sequences particularly susceptible to proteolysis. Binding selections were carried out by incubating mRNA display libraries with the immobilized His6-LC3A followed by elution in SDS and PCR amplification. After seven rounds of binding selection, the number of PCR cycles required to recover the enriched dsDNA after each binding selection had reduced by 40% (FIG. 3C). […] Over 90% of sequences in the library contained an N-methyl alanine residue at a conserved position adjacent to the fixed lysine residue. […] The majority of sequences contained variations of the canonical Autophagy-Interacting Motif observed in natural LC3 adaptor proteins (FIG. 4). […] Binding was confirmed by incubation of radiolabeled individual peptide fusions with immobilized LC3A (FIG. 3E; Table 2).

In a further data set the test system is OVCAR8 cells. The note with it: 50 μM peptide; for cell viability (MTT), DIRAS3-induced (autophagic) cells: OVCAR8, Dox-induced, 72 hours. How it is done:
(§1) FIGS. 6A-D: SUPR4B in the DIRAS3 autophagy model. FIGS. 6A&B—MTT viability assays with 50 M linear and cyclic SUPR 4B on non-DIRAS3 induced OVCAR8 (FIG. 6B) and SKOv3 (FIG. 6A) cells. […] Induction was performed using 1 g/mL DOX.
(§2) FIGS. 8A-F: SUPR4B in the DIRAS3 autophagy model. […] Inhibition of autophagy by the present compound were hypothesized to restore cellular growth. […] FIGS. 8A&B—MTT viability assays with 50 M linear and cyclic SUPR on non-DIRAS3 induced OVCAR8 (FIG. 8A) and SKOv3 (FIG. 8B) cells. […] FIGS. 8C&D—MTT viability assays on the effect of 50 M linear and cyclic LC3 SUPR4B on DIRAS3-induced OVCAR8 (FIG. 8C) and SKOv3 (FIG. 8D) cells. Induction was performed using 1 g/mL DOX.
(§3) After selection, the library was sequenced and lead compounds were subjected to thermodynamic and cellular assays to develop a structure-activity relationship modeling the interaction between the SUPR peptide and the target.

Another data set has as its system SKOv3 cells. Put plainly: MTT viability assay in DIRAS3 autophagy model. The note with it: 50 μM peptide; for cell viability (MTT), DIRAS3-induced (autophagic) cells: SKOv3, Dox-induced, 72 hours. The protocol: as §1, §2, §3
Data set [1] deals with OVCAR8 orthotopic ovarian tumors. The experiment in a line: Orthotopic ovarian tumor model with carboplatin. Format: in vivo. The following applies: mice, IP OVCAR8; three times per week for four weeks; SUPR peptide 10 mg/kg or carboplatin 25 mg/kg. How it is done: FIG. 13: SUPR4B1W sensitizes orthotopic ovarian tumors to carboplatin treatment. Mice were injected IP with 2 million OVCAR8 cells and treated three times per week for four weeks with vehicle control, SUPR peptide (10 mg/kg), carboplatin (25 mg/kg), or combination of SUPR peptide and carboplatin. At the end of four weeks, mice were sacrificed and tumors were dissected. […] For each vertical groups of data points, the top group represents Mouse Weight and the bottom group represents Tumor Weight.
In animal model experiments, mice were implanted with a cisplatin-resistant ovarian cancer cell line (OVCAR8) and treated with carboplatin, SUPR4B1W peptide, or carboplatin+SUPR4B1W peptide for 4 weeks. At the conclusion of the study, the mice were sacrificed and the mass of the intraperitoneal tumors measured.

In a further data set the test system is SKOv3-ARHI cells. The experiment in a line: Western blotting of p62 and LC3I/LC3II in DIRAS3-induced cells. Format: cell-based. The note with it: peptide-treated, 72 h. The protocol: (§4) FIGS. 7A-B: SUPR4B in the DIRAS3 autophagy model.
(§5) FIGS. 8A-F: SUPR4B in the DIRAS3 autophagy model. […] Induction was performed using 1 g/mL DOX.

A further data set has as its system OVCAR8-ARHI cells. The description is as above. In kind it is cell-based. The following applies: peptide-treated, 72 h. How it is done: as §4, §5

“Also recorded” adds a separate entry of the source. Numbered stars: 1 amine (or outer) side, 2 acyl side, 3 side chain; on linkers, the order of the positions; unused ones are H or OH. Bridge positions count the residues as written; N and C are the ends. Square brackets hold non-standard residues; d marks the D form. Ends that are not written are not given here. Peptide text beside a SMILES is read from it. Glutaryl = O=C(CCCC(=O)[*:2])[*:1]; NMeA = CN[C@@H](C)C(=O)O

Take MLSDIPVNDK [Clone 4E]: the “Binding analysis of clones on immobilized LC3 (FIG. 3E)” value (from here on “Binding analysis of clones”) with LC3A is “selective LC3 binding”. For the compound `CCN(CC)CCCC(C)Nc1ccnc2cc(Cl)ccc12` (stereo not shown) [chloroquine, reference compound], the “cell viability (MTT), DIRAS3-induced (autophagic) cells” value in the data set with OVCAR8 cells and in the data set with SKOv3 cells was “did not result in a statistically significant increase in cell viability” in each case. Turning to “MYARSLRDZK (MYARSLRD[NMeA]K; bridge N-10) [Clone 25A]”, the “Binding analysis of clones” value with LC3A was “selective LC3 binding”. For `N.N.O=C([O-])C1(C(=O)[O-])CCC1.[Pt+2]` [carboplatin, reference compound], the “final tumor mass, agent administered alone” value in data set [1] is listed as “expected reduction in tumor volume”. “MYTRRVRLZK (MYTRRVRL[NMeA]K; bridge N-10) [Clone 25E]”: in the data set with LC3A, the “% of radiolabeled peptide-fusions bound to immobilized LC3” value amounted to 3%. Consider “MNARSLRDZK (MNARSLRD[NMeA]K; bridge N-10) [Clone 25F]”, for which the “Binding analysis of clones” value with LC3A is listed as “selective LC3 binding”. In the case of “MFSHRVTLZK (MFSHRVTL[NMeA]K; bridge N-10) [Clone 25C]”, the “Binding analysis of clones” value in the data set with LC3A is “selective LC3 binding”.

As to “MLARSLRDZK (MLARSLRD[NMeA]K; bridge N-10) [Clone 25I]”, in the data set with LC3A, the “% of radiolabeled peptide-fusions bound to immobilized LC3” value amounted to 4%. On the same count and under the same terms, next, “MSLHRVTVZK (MSLHRVTV[NMeA]K; bridge N-10) [Clone 4C]”: 1%. In the case of `CSCC[C@@H]1NC(=O)CCCC(=O)NCCCC[C@@H](C(=O)O)NC(=O)[C@H](C)N(C)C(=O)[C@H](C)NC(=O)[C@H]([C@@H](C)O)NC(=O)[C@H](C(C)C)NC(=O)[C@H](CCCNC(=N)N)NC(=O)[C@H](Cc2c[nH]cn2)NC(=O)[C@@H]2CCCN2C(=O)[C@H](Cc2ccccc2)NC1=O` [Clone 4B, MFPHRVTAZK] (MFPHRVTA[NMeA]K-OH; linker N-10 via Glutaryl), the “cell viability (MTT), DIRAS3-induced (autophagic) cells” value with OVCAR8 cells and with SKOv3 cells was “significant rescue of viability” each time. Further, the “cell viability (MTT), non-DIRAS3 induced cells” value in the data set on OVCAR8 cells (OVCAR8, no Dox (non-autophagic), up to 72 hours) was “no statistically significant effect on cell viability”; in the data set on SKOv3 cells (SKOv3, no Dox (non-autophagic), up to 72 hours), “no statistically significant effect on cell viability”. In addition, at LC3A, the “Binding analysis of clones” value is “selective LC3 binding; also recorded: nearly quantitative binding”. Besides, the LC3I/LC3II ratio result in the data set with SKOv3-ARHI cells and with OVCAR8-ARHI cells was “decreased LC3I/LC3II ratio” throughout. The p62 protein levels result with SKOv3-ARHI cells and in the data set with OVCAR8-ARHI cells was “increase in p62 protein levels” in each case.
